According to PubChem BioAssay (NCI):
“And” between values parts separate entries of the source, which are not always exact repeats. Identical values can stand only once.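 Where inhibition never reached the appropriate level, the endpoint shown equals the highest concentration tested. Otherwise, values were interpolated linearly from a five-concentration, 48-hour dose response in 96-well plates. GI50 is the concentration that inhibits growth by half. TGI is the concentration that stops growth completely.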

Tests used:
Experiment in all cases: NCI anticancer screen, dose series, 48 h
[1] = tested on: LXFL 529 NSCLC
[2] = tested on: DMS 273 small cell lung
[3] = tested on: XF 498 CNS
[4] = tested on: DLD-1 colon
[5] = tested on: HOP-18 NSCLC
[6] = tested on: DMS 114 small cell lung
[7] = tested on: RXF-631 renal
[8] = tested on: SNB-78 CNS
[9] = tested on: MDA-N

SMILES | TGI [1] | TGI [2] | TGI [3] | TGI [4] | TGI [5] | TGI [6] | TGI [8] | TGI [9] [µM] | other results
Cc1ccc2c(c1)-c1c3c(nn1-c1ccccc1)-c1ccccc1SC3O2 (centres undefined) | > 100 µM | > 100 µM | > 100 µM | > 100 µM | > 100 µM | > 100 µM | > 100 µM |  | TGI [7]: 16.1 µM
COc1cc2c[n+](C)c3c4cc(OC)c(OC(C)C)cc4ccc3c2cc1OC | 76.1 µM | 97.6 µM |  | > 100 µM | > 100 µM | 26.7 µM | > 100 µM |  | 
C[C@H](OCc1ccccc1)C(=O)N1CCS(=O)(=O)N2CCC[C@@H]2C1=O | > 100 µM |  | 94.7 µM | > 100 µM | > 100 µM | > 100 µM | > 100 µM |  | TGI [7]: > 100 µM
CC(C)CCCC(C)[C@H]1CCC2[C@@H]3CCC4Cc5nc6c(nc5C[C@]4(C)C3CC[C@@]21C)CC1CC[C@@H]2C(CC[C@@]3(C)C2CC[C@@H]3C(C)CCCC(C)C)[C@@]1(C)C6 (some centres undefined) |  |  |  |  |  |  |  | > 100 | 
Cc1ccccc1C1OC(=O)c2ccc3ccccc3c21 (centres undefined) | 15.1 µM | 12.4 µM | 9.69 µM | 16.8 µM | 25.2 µM | 13.3 µM | 98.3 µM |  | TGI [7]: 3.23 µM
COC(C(=O)NN)c1ccccc1 (centres undefined) |  |  |  |  |  |  |  | > 100 | 
COc1cc2c(cc1OC)[C@H](C)N1CCc3cc(OC)c(OC)cc3[C@@H]1C2 |  |  |  |  |  |  |  | > 100 | 
O=C1Nc2ccc(Br)cc2C1=Nc1cccnc1 |  |  |  |  |  |  |  | 34.7 | 
C=Cc1cncc(C#N)c1CCc1c(C#N)cncc1C=C | > 100 µM | > 100 µM | > 100 µM | > 100 µM | > 10 µM | > 10 µM | > 100 µM |  | GI50 [1]: > 100 µM; GI50 [2]: > 100 µM; GI50 [3]: > 100 µM; GI50 [4]: > 100 µM; GI50 [8]: > 100 µM
COc1cc(OC)c2nc(C)c3c(c2c1)SCC3 |  |  |  |  |  |  |  | 85 | 
C=C/C=C/NC(=O)OCc1ccccc1 | > 100 µM | > 100 µM | > 100 µM | > 100 µM | > 100 µM | > 100 µM | > 100 µM |  | 
CC1CCC/C1=C(/I)C(=O)c1ccccc1 (centres undefined) |  |  |  |  |  |  |  | > 100 | 
CN(C(=O)C12C3C4C1C1C2C3C41C(N)=O)C(C)(C)C (centres undefined) | > 100 µM | > 100 µM | > 100 µM |  |  | > 100 µM | > 100 µM |  | 
CC(=O)Nc1ccc(S(=O)(=O)N/N=C/CN2C(=O)c3ccccc3C2=O)cc1 | > 100 µM | > 100 µM | > 100 µM | > 100 µM |  | > 100 µM |  |  | 
C[C@@]12CCC(=O)c3coc(c31)C(=O)c1cc3c(cc12)C(=O)C=CC3=O | > 1 µM and 31.3 µM | > 1 µM and 30 µM | > 1 µM and 33.4 µM | > 1 µM and 30.5 µM | > 1 µM and 31.3 µM | > 1 µM and 27.6 µM | > 1 µM and 47.8 µM |  | GI50 [1]: > 1 µM; GI50 [2]: > 1 µM; GI50 [3]: > 1 µM; GI50 [4]: > 1 µM; GI50 [5]: > 1 µM; GI50 [6]: > 1 µM; GI50 [8]: > 1 µM
CC(CN(C)C)/C(=N\Nc1ccccc1)c1ccccc1 (centres undefined) |  | 12.1 µM |  | > 100 µM | 67.3 µM | 20.5 µM | 83 µM |  | 
CCOC(=O)/C(C1=NCCN1)=C(\O)c1ccccc1 | > 100 µM |  | > 100 µM | > 100 µM | > 100 µM |  |  |  | TGI [7]: > 100 µM
c1cncc(C2N3CCCCC3[C@@H]3c4[nH]c5ccccc5c4CCN23)c1 (some centres undefined) | > 100 µM | > 100 µM | > 100 µM | > 100 µM | > 100 µM |  | > 100 µM |  | TGI [7]: > 100 µM
CCCCCCCCCCCCCCCC(=O)OCC1OC(n2cc(F)c(=O)[nH]c2=O)C(N)C(O)C1O (centres undefined) | 34.3 µM |  | 33.5 µM | 37.1 µM | 30.7 µM | 32.8 µM |  |  | 
CC1=NN(C(=O)c2ccccc2O)C(=O)/C1=C/c1ccc(O)cc1 | > 100 µM |  |  | > 100 µM |  | 16.1 µM | > 100 µM | > 100 | 
C=C(C(N)=O)c1ccc([N+](=O)[O-])o1 |  |  |  |  |  |  |  | 13.5 | 
O=C(C/C(=N/O)C(=O)NC1=C(Cl)C(=O)c2ccccc2C1=O)CC(c1ccccc1)c1c(O)c2ccccc2oc1=O (centres undefined) |  |  |  |  |  |  |  | 3.09 | 
O=S(=O)(/C=C/c1ccc(F)cc1)Cc1ccc(CS(=O)(=O)/C=C/c2ccc(F)cc2)cc1 | > 100 µM | > 100 µM | > 100 µM | > 100 µM | > 100 µM | > 100 µM | > 100 µM |  | TGI [7]: > 100 µM
O=C1CCCCCCCCCCC1CN1CCCC1 (centres undefined) |  |  |  |  |  |  |  | > 100 | 
C=C1CC2OC(=O)C(=C)C2C(O)C2C(=C)CCC12 (centres undefined) | 16.7 µM | 22.2 µM |  | 30.9 µM | 29.3 µM | 16.9 µM | 20.6 µM |  | 
COc1ccc2c(c1)C(=O)c1ccc(OC)cc1C2=S |  | > 100 µM | > 100 µM | > 100 µM | > 100 µM | > 100 µM | > 100 µM |  | 
NNC(=O)C1CCC(=O)N1S(=O)(=O)c1ccccc1 (centres undefined) | > 100 µM | > 100 µM | > 100 µM | > 100 µM |  | > 100 µM | > 100 µM |  | 
